Source: patent US20250000822A1, “USE OF 2-HYDROXYBENZYLAMINE FOR THE TREATMENT OF SYSTEMIC LUPUS” (Vanderbilt University, priority 2019, published 2025)
Entries after “also recorded” stand apart in the source; their conditions may differ.

Key:
B6.SLE123 mice [1] = assay: isoLG adduct accumulation in monocytes and dendritic cells of SLE-prone mice (flow cytometry); format: in vivo; details: B6.SLE123 mice treated from 7 weeks of age, analysed at 32 weeks
Description: Quantitation of isoLG-adduct containing cells in (C) splenic DCs (D) circulating monocytes. (n=5-9, *P<0.05, **P<0.01, ***P<0.001, ****P<0.0001).
The present inventors have also shown that 2-HOBA reduces isoLG accumulation in monocytes and dendritic cells (DCs) of SLE-prone mice. B6.SLE123 mice were treated with 2-HOBA starting at 7 weeks of age (prior to disease presentation). At 32 weeks of age, peripheral blood, spleen, and bone marrow cells were harvested from B6.SLE123 and control (C57BL/6) mice. Flow cytometry was used to detect the surface markers CD11c, IAb, CD11b, F4/80, and Ly6c and isoLG adducts.

HepG2 cells = assay: protection of HepG2 cells against H2O2-induced cytotoxicity; format: cell-based
Text: (§1) 2-HOBA, for example, is naturally found in buckwheat seeds. 2-HOBA is highly reactive and found to react with isoLGs at a rate more than 3 orders of magnitude faster than the e-amine of lysine (see FIG. 3). By selectively reacting with isoLGs, 2-HOBA inhibits isoLG:protein adduct formation and subsequent isoLG-induced cell dysfunction.

[2] = reaction of 2-HOBA with isoLGs (isoLG scavenging)
Text: as §1

B6.SLE123 mice [3] = assay: SLE-associated renal injury and dysfunction, B6.SLE123 mice; format: in vivo
Description: Kidneys were sectioned and stained with […] silver stain; (A) representative glomeruli are presented. (B) Mice received IP injection of 4% normal saline at 10% of body weight and urine output was measured over 4 hours. (C) Urine albumin/creatine ratio. (D) Urinary NGAL. (n=6-8, *P<0.05, **P<0.01, ****P<0.0001).
The present inventors have also shown that 2-HOBA protects against SLE-associated renal injury and dysfunction. […] To assess renal function, 2-HOBA treated and untreated B6.SLE123 animals were injected with 4% normal saline at a volume equal to 10% of their body weight, and urine volume was measured over 4 hours.

[4] = in vitro, in animals, or in humans, to date; cited from earlier work
healthy human volunteers [5] = details: 500 and 750 mg TID for 2 weeks; cited from earlier work
healthy human volunteers [6] = details: single doses up to 825 mg (highest dose tested); cited from earlier work
B6.SLE123 mice [7] = assay: SLE-associated renal inflammation, B6.SLE123 mice; format: in vivo
Description: Single cell suspensions were prepared from freshly isolated mouse kidney via enzymatic digestion and mechanical dissociation. Live cell singlets were analyzed. Representative FACS plots are presented for (A) CD3^+ T-cells. Quantitation of (B) CD45^+ leukocytes and (C) CD3^+ T-cells are represented. (n=6-8, *P<0.05, **P<0.01).
The present inventors have also shown that 2-HOBA reduces SLE-associated inflammation.

B6.SLE123 mice [8] = assay: plasma cell expansion and antibody titers, B6.SLE123 mice; format: in vivo
Description: (A) Representative FACS plots displaying CD138^+ and intracellular Igκ-light-chain^+ plasma cells from bone marrow. Quantitation of plasma cells as a percentage of CD45 cells are represented for (B) bone marrow. (C) Anti-dsDNA IgG antibody and (D) total plasma IgG at 1:100K dilution were analyzed by ELISA. (n=5-7, *P<0.05, **P<0.01, ***P<0.001, ****P<0.0001).
The present inventors have also shown that 2-HOBA reduces bone marrow plasma cell expansion and anti-dsDNA antibody titers. SLE is associated with an expansion of plasma cells and an amplification of auto-antibodies. Autoreactive plasma cells are believed to play an important role in SLE by generating antibodies that lead to the creation of immune complexes which deposit in peripheral tissues. Flow cytometry was performed to identify CD138^+/Igκ-light-chain^+ plasma cells in spleen and bone marrow cell preparations from B6.SLE123 animals treated with vehicle or 2-HOBA. B6.SLE123 animals had significant accumulation of spleen and bone marrow plasma cells which were attenuated by 2-HOBA (FIG. 7A-C).

[9] = SLE-prone mice, kidney sections
[10] = B6.SLE123, CD138+/Igκ-light-chain+ cells, flow cytometry

**Q.** For `NCc1ccccc1O` [2-HOBA, 2-hydroxybenzylamine], which “isoLG accumulation in monocytes” value (B6.SLE123 mice [1]; peripheral blood monocytes) is on record?
**A.** efficient scavenging; also recorded: significantly attenuated

**Q.** What about the “isoLG accumulation in DCs” value (B6.SLE123 mice [1]; splenic dendritic cells) of the same compound?
**A.** efficient scavenging; also recorded: significantly attenuated

**Q.** What about the “protection against H2O2-induced cytotoxicity” value (HepG2 cells) of the same compound?
**A.** dramatically protected

**Q.** And the isoLG scavenging [2]?
**A.** potent isoLG scavengers

**Q.** And the “rate of reaction with isoLGs, faster than the e-amine of lysine” value ([2]; relative to e-amine of lysine)?
**A.** more than 3 orders of magnitude

**Q.** What about the “albumin to creatinine ratio” value (B6.SLE123 mice [3]; B6.SLE123 mice, urine) of the same compound?
**A.** improved

**Q.** What about the NGAL excretion (B6.SLE123 mice [3]; B6.SLE123 mice, urine, marker of tubular injury) of the same compound?
**A.** improved

**Q.** What about the urine volume (B6.SLE123 mice [3]; B6.SLE123 mice, over 4 hours after injection of 4% normal saline at 10% of body weight) of the same compound?
**A.** improved

**Q.** What about the glomerular hypercellularity (B6.SLE123 mice [3]; [9]) of the same compound?
**A.** markedly improved

**Q.** And the immune complex deposition (B6.SLE123 mice [3]; [9])?
**A.** markedly improved

**Q.** What about the “renal injury and dysfunction” value (B6.SLE123 mice [3]; mouse model of SLE (FIG. 6 legend)) of the same compound?
**A.** attenuates

**Q.** And the “serious adverse effects or potential issues observed” value [4]?
**A.** no serious adverse effects or potential issues

**Q.** What about the “accumulation of 2-HOBA and its primary metabolite” value (healthy human volunteers [5]) of the same compound?
**A.** low

**Q.** What about the serious adverse events (healthy human volunteers [5]) of the same compound?
**A.** no serious adverse events

**Q.** And the “tolerability of multiple doses” value (healthy human volunteers [5])?
**A.** well tolerated

**Q.** What about the “safety and tolerability of single doses” value (healthy human volunteers [6]) of the same compound?
**A.** safe and well-tolerated

**Q.** And the renal inflammation (B6.SLE123 mice [7])?
**A.** markedly reduced

**Q.** And the “renal CD3+ T-cells” value (B6.SLE123 mice [7]; kidney, flow cytometry)?
**A.** reduction

**Q.** What about the “renal CD45+ cells” value (B6.SLE123 mice [7]; kidney, flow cytometry) of the same compound?
**A.** reduction

**Q.** And the “plasma anti-dsDNA antibody titers” value (B6.SLE123 mice [8]; B6.SLE123, ELISA)?
**A.** reduces; also recorded: markedly lower

**Q.** What about the “total IgG antibody titers” value (B6.SLE123 mice [8]; B6.SLE123, plasma, ELISA) of the same compound?
**A.** reduces; also recorded: markedly lower

**Q.** And the “accumulation of bone marrow plasma cells” value (B6.SLE123 mice [8]; [10])?
**A.** reduces; also recorded: attenuated

**Q.** And the “accumulation of spleen plasma cells” value (B6.SLE123 mice [8]; [10])?
**A.** attenuated
